Data on eight compounds can be found in US9920073B2, “Compositions useful for inhibiting HIV-1 infection and methods using same” (Drexel University, priority 2013, dated 2018).

Format in all cases: cell-based
For assay [1], the system named is attachment of HIV-1HxBc2 to U87-CD+-CXCR4+ cells. Briefly: Temperature shift assay (viral attachment). The method, then:
The entry process can be divided into two temperature-dependent stages, with receptor and coreceptor binding occurring over the temperature range 0-37° C., while the fusion process only occurs at temperatures above 25° C. (Frey, et al., 1995, J. Virol. 69:1462-1472). Based upon differential ranges in temperatures at which binding and fusion/entry occur, a novel assay was developed to detect viral attachment in the presence or absence of inhibitors. Recombinant single-round infective HIV-1 virions are incubated with permissive cells at 4° C. for 2 hours to only allow the initial receptor/coreceptor engagement. Unattached virions, and the compound, are then removed by washing the cells with cold media followed by centrifugation at 1200 rpm for 4 min at 4° C. Cells are replenished with fresh media and transferred to 37° C. After 48 hour of incubation, the level of infection is measured by a luciferase activity as in the standard single-round infection assay. […] Conversely, the small molecule CD4-mimetic NBD-556, which is known to disrupt the gp120-CD4 interaction, reduces the level of infection to 40% of vehicle (DMSO) alone (FIG. 11). […] Moreover, this analysis may be extended to encompass viruses that utilize CCR5 for entry.

For a further assay, the system named is HIV-1 isolate BaL. Briefly: microbe, parasite or virus in culture. As to conditions: Human immunodeficiency virus 1, tropism R5.
In a further assay the test system is HIV-1HxBc2. Briefly: microbe, parasite or virus in culture.
The test system of another assay is HIV-1 isolate JR-FL. Briefly: microbe, parasite or virus in culture. As to conditions: Human immunodeficiency virus 1, tropism R5.
The test system of a further assay is HIV-1JR-CSF. Briefly: microbe, parasite or virus in culture.
In another assay the test system is HIV-1 isolate AC10.0.29. Briefly: microbe, parasite or virus in culture. As to conditions: Human immunodeficiency virus 1; isolate AC10.0.29, tropism R5.
Assay [2] has as its system amphotropic murine leukemia virus (AMLV). Briefly: microbe, parasite or virus in culture. The following applies: single round infection assay, in words.
Setting [3] is: Human immunodeficiency virus 1, read-out: IC50 HxBc2.
The mark [4] stands for this setting: Human immunodeficiency virus 1, read-out: IC50 JR-CSF.

Like-named read-outs stand apart in the source and are kept apart here.

As for `CC1(C)CC(NC(=O)C(=O)Nc2ccc(Cl)cc2)CC(C)(C)N1` [NBD-556, N1-(4-chlorophenyl)-N2-(2,2,6,6-tetramethyl-4-piperidinyl)-ethanediamide, reference compound], the “level of infection relative to vehicle (DMSO) alone” value in assay [1] (virions with cells at 4° C. for 2 hours, wash, 37° C. 48 hour, FIG. 11) amounted to 40%.

For `COc1cnc(-n2cnc(C)n2)c2[nH]cc(C(=O)C(=O)N3CC4C=NN(c5ccccc5)C4C3)c12` (centres unmarked) [SC12, 1-(4-methoxy-7-(3-methyl-1H-1,2,4-triazol-1-yl)-1H-pyrrolo[2,3-c]pyridin-3-yl)-2-(1-phenyl-3a,4,6,6a-tetrahydropyrrolo[3,4-c]pyrazol-5(1H)-yl)ethane-1,2-dione], the IC50 with HIV-1 isolate BaL is 3.5 ± 0.3 µM; in the assay on HIV-1HxBc2 (Human immunodeficiency virus 1), 0.024 ± 0.003 µM; in the assay with HIV-1HxBc2 (setting [3]) it was 0.08 ± 0.02 µM; in the assay on HIV-1 isolate JR-FL it was 0.106 ± 0.052 µM; in the assay with HIV-1JR-CSF (Human immunodeficiency virus 1) it was 0.013 ± 0.003 µM; with HIV-1JR-CSF (setting [4]) it was 0.008 ± 0.002 µM. The same compound returned an IC50 in the assay with HIV-1 isolate AC10.0.29 of 0.488 ± 0.047 µM. The “block of viral attachment” value in assay [1] (temperature shift assay, in words) was “does not appear to block viral attachment”.

With `COc1cnc(Cl)c2[nH]cc(C(=O)C(=O)N3CC4CN(C(=O)c5ccccc5)CC4C3)c12` (centres unmarked) [SC07, 1-(5-benzoylhexahydropyrrolo[3,4-c]pyrrol-2(1H)-yl)-2-(7-chloro-4-methoxy-1H-pyrrolo[2,3-c]pyridin-3-yl)ethane-1,2-dione], the IC50 came out at 16.8 ± 6.2 µM in the assay on HIV-1HxBc2 (setting [3]) and 0.98 ± 0.06 µM in the assay with HIV-1JR-CSF (setting [4]). Also, in assay [2], the “specificity to HIV-1 (inhibition of AMLV-pseudotyped HIV-1)” value is “no inhibition of AMLV-pseudotyped HIV-1”.

Take `COc1ncc(OC)c2c(C(=O)C(=O)N3CC4CCC(c5ccccc5)C4C3)c[nH]c12` (centres unmarked) [SC10, 1-(4,7-dimethoxy-1H-pyrrolo[2,3-c]pyridin-3-yl)-2-(4-phenylhexahydrocyclopenta[c]pyrrol-2(1H)-yl)ethane-1,2-dione]: the IC50 with HIV-1HxBc2 (setting [3]) stood at 4.81 ± 4.1 µM; in the assay on HIV-1JR-CSF (setting [4]) it was 0.42 ± 0.11 µM.

For the compound `COc1ncc(OC)c2c(C(=O)C(=O)N3CC4CN(C(=O)c5ccccc5)CC4C3)c[nH]c12` (centres unmarked) [SC08, 1-(5-benzoylhexahydropyrrolo[3,4-c]pyrrol-2(1H)-yl)-2-(4,7-dimethoxy-1H-pyrrolo[2,3-c]pyridin-3-yl)ethane-1,2-dione], the IC50 is 0.19 ± 0.08 µM in the assay on HIV-1HxBc2 (setting [3]) and 0.09 ± 0.01 µM in the assay on HIV-1JR-CSF (read-out: IC50 JR-CSF, single round infection assay). Besides, the “specificity to HIV-1 (inhibition of AMLV-pseudotyped HIV-1)” value in assay [2] is “no inhibition of AMLV-pseudotyped HIV-1”.

For the compound `COc1cnc(-n2cnc(C)n2)c2[nH]cc(C(=O)C(=O)N(C)C3CN(C(=O)c4ccccc4)C3)c12` [SC18, N-(1-benzoylazetidin-3-yl)-2-(4-methoxy-7-(3-methyl-1H-1,2,4-triazol-1-yl)-1H-pyrrolo[2,3-c]pyridin-3-yl)-N-methyl-2-oxoacetamide], the values for the IC50 with HIV-1HxBc2 (setting [3]) and with HIV-1JR-CSF (setting [4]) were 102 ± 160 µM and 1.3 ± 0.2 µM, respectively.

Regarding `COc1cnc(-n2cnc(C)n2)c2[nH]cc(C(=O)C(=O)N3CC(CSC(=O)c4ccccc4)C3)c12` [SC16, S-((1-(2-(4-methoxy-7-(3-methyl-1H-1,2,4-triazol-1-yl)-1H-pyrrolo[2,3-c]pyridin-3-yl)-2-oxoacetyl)azetidin-3-yl)methyl) benzothioate], the IC50 in the assay on HIV-1HxBc2 (setting [3]) is 0.15 ± 0.03 µM; in the assay on HIV-1JR-CSF (setting [4]), 0.1 ± 0.02 µM.

With `COc1cnc(-n2cnc(C)n2)c2[nH]cc(C(=O)C(=O)N3CC(CCC(=O)c4ccccc4)C3)c12` [SC15, 1-(4-methoxy-7-(3-methyl-1H-1,2,4-triazol-1-yl)-1H-pyrrolo[2,3-c]pyridin-3-yl)-2-(3-(3-oxo-3-phenylpropyl)azetidin-1-yl)ethane-1,2-dione], the IC50 worked out at 0.003 ± 0.0005 µM with HIV-1HxBc2 (setting [3]) and 0.002 ± 0.0001 µM with HIV-1JR-CSF (setting [4]).

Usually IC50 stands for the concentration needed to halve the response being measured.
